Broadly, the EC50 is the concentration giving half of the maximal effect.

Structures can show the parent of a compound that is named as a salt.

The values below come from patent US12180226B2, “Spirotricycle RIPK1 inhibitors and methods of uses thereof” (Merck Sharp & Dohme LLC, priority 2021, dated 2024).

The target of this assay is RIPK1 (recombinant GST-RIPK1 kinase domain, residues 1-327) (Homo sapiens (Human), UniProt Q13546). Kind of assay: RIPK1-ADP-Glo Enzymatic Assay. As to conditions: ADP-Glo; 25 nM GST-RIPK1, 300 μM ATP; assay lower limit ~25 nM; read-out: RIPK1 V0 Ec50. The assay is classed as biochemical. In a few lines:
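ADP-Glo luminescence read after 150 min kinase reaction (300 μM ATP, 3 μM dephosphorylated MBP) using 25 nM Sf21-made GST-kinase domain (1-327), preincubated 30 min with compound. HEPES pH 7.3, 1% DMSO; ten-point 1:3 series from 100000 nM, EC50 via four-parameter sigmoidal regression.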
On the technique in general: In ADP-Glo the light output rises with the ADP produced.

RIPK1 (recombinant GST-RIPK1 kinase domain, residues 1-327), sequence (Q13546 1-327): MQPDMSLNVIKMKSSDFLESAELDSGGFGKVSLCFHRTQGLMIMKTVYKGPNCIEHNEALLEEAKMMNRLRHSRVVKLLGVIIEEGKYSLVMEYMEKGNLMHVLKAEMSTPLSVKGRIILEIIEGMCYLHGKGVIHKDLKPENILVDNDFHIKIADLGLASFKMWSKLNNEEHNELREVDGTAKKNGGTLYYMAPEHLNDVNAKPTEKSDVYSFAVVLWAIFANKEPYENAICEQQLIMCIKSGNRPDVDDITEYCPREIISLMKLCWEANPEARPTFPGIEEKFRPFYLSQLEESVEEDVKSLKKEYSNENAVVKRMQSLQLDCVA

For the compound `Cc1onc(C(=O)N2CCC3(CC2)O[C@@H]2CC[C@@H](c4cc(F)cc(F)c4)N2C3=O)c1C` [Example 6.57, (5′S,7a′R)-5′-(3,5-difluorophenyl)-1-(4,5-dimethyl-1,2-oxazole-3-carbonyl) tetrahydro-3′H-spiro [piperidine-4,2′-pyrrolo[2,1-b][1,3]-oxazol]-3′-one], the EC50 is 426 nM. Consider `Cn1cnc(-c2ccc(N3CCC4(CC3)O[C@@H]3CC[C@@H](c5ccccc5)N3C4=O)n3ncnc23)c1` [Example 21.21, (5′S,7a′R)-1-[8-(1-methyl-1H-imidazol-4-yl)[1,2,4]triazolo[1,5-a]pyridin-5-yl]-5′-phenyltetrahydro-3′H-spiro[piperidine-4,2′-pyrrolo[2,1-b][l,3]oxazol]-3′-one], for which the EC50 is under 25 nM.

For the compound `N#CC1(NC(=O)c2nc(N3CCC4(CC3)O[C@@H]3CC[C@@H](c5cc(F)cc(F)c5)N3C4=O)ncc2F)CC1` [Example 7.12, N-(1-cyanocyclopropyl)-2-[(5′S,7a′R)-5′-(3,5-difluorophenyl)-3'-oxotetrahydro-1H,3′H-spiro[piperidine-4,2′-pyrrolo[2,1-b][1,3]oxazol]-1-yl]-5-fluoropyrimidine-4-carboxamide], the EC50 is 165 nM. Turning to `O=C1N2[C@@H](CC[C@H]2c2ccccc2F)OC12CCN(c1cc(Cl)ncn1)CC2` [Example 4.99, (5′S,7a′R)-1-(6-chloropyrimidin-4-yl)-5′-(2-fluorophenyl)tetrahydro-3′H-spiro[piperidine-4,2′-pyrrolo[2,1-b]oxazol]-3′-one], the EC50 was under 25 nM.

On to `N#Cc1cnc(N2CCC3(CC2)O[C@@H]2CC[C@@H](c4cc(F)cc(F)c4)N2C3=O)s1` [Example 4.101, 2-((5′S,7a′R)-5′-(3,5-difluorophenyl)-3′-oxotetrahydro-3′H-spiro[piperidine-4,2′-pyrrolo[2,1-b]oxazol]-1-yl)thiazole-5-carbonitrile], for which the EC50 was 40.4 nM. Under `COc1cc(N2CCC3(CC2)O[C@@H]2CC[C@@H](c4cccc(F)c4)N2C3=O)ncn1` [Example 4.51, (5′S,7a′R)-5′-(3-fluorophenyl)-1-(6-methoxypyrimidin-4-yl)tetrahydro-3′H-spiro[piperidine-4,2′-pyrrolo[2,1-b] [1,3]oxazol]-3′-one] stands 41.2 nM. Under `O=C1N2[C@@H](CC[C@H]2c2ccccc2)OC12CCN(c1ccnc(C3CC3)n1)CC2` [Example 11.15, (5′S,7a′R)-1-(2-cyclopropylpyrimidin-4-yl)-5′-phenyltetrahydro-3′H-spiro[piperidine-4,2′-pyrrolo[2,1-b][1,3]oxazol]-3′-one] stands 81.7 nM; under `N#Cc1cccc(S(=O)(=O)N2CCC3(CC2)O[C@@H]2CC[C@@H](c4cc(F)cc(F)c4)N2C3=O)c1` [Example 8.3, 3-{[(5′S,7a′R)-5′-(3,5-difluorophenyl)-3′-oxotetrahydro-1H,3′H-spiro[piperidine-4,2′-pyrrolo[2,1-b][1,3]oxazol]-1-yl]sulfonyl]benzonitrile], 213 nM.

As to `COc1ccc(C(=O)N2CCC3(CC2)O[C@@H]2CC[C@@H](c4cc(F)cc(F)c4)N2C3=O)c(F)c1` [Example 5.58, (5′S,7a′R)-5′-(3,5-difluoro-phenyl)-1-(2-fluoro-4-methoxybenzoyl)tetra-hydro-3′H-spiro[piperidine-4,2′-pyrrolo[2,1-b]oxazol]-3'-one], the EC50 worked out at 24.8 nM.

With `O=C(c1ccccc1)N1CCC2(CC1)O[C@@H]1[C@@H](F)C[C@@H](c3ccccc3)N1C2=O` [Example 6.108, (5′S,7′S,7a′R)-1-(benzenecarbonyl)-7′-fluoro-5′-phenyl-tetrahydro-3′H-spiro [piperidine-4,2′-pyrrolo[2,1-b][1,3]-oxazol]-3′-one], the EC50 turned out to be 43.8 nM. Regarding `CCOc1ccc(N2CCC3(CC2)O[C@@H]2CC[C@@H](c4cc(F)cc(F)c4)N2C3=O)n2nccc12` [Example 19.2, (5′S,7a′R)-5′-(3,5-difluorophenyl)-1-(4-ethoxypyrazolo[1,5-a]pyridin-7-yl)tetrahydro-3′H-spiro[piperidine-4,2′-pyrrolo[2,1-b]oxazol]-3′-one, TFA salt], the EC50 is under 25 nM.

Regarding `O=C1N2[C@@H](CC[C@H]2c2ccccc2F)OC12CN(S(=O)(=O)c1ccccc1)C2` [Example 8.5, (5′S,7a′R)-5′-(2-fluorophenyl)-1-(phenylsulfonyl)tetra-hydro-3′H-spiro[azetidine-3,2′-pyrrolo[2,1-b]oxazol]-3′-one], the 50% effective concentration (EC50) was 429 nM. With `O=C1N2[C@@H](CC[C@H]2c2ccccc2)OC12CN(c1cccc3ncnn13)C2` [Example 4.133, (5′S,7a′R)-5′-phenyl-1-([1,2,4]triazolo[1,5-a]pyridin-5-yl)tetrahydro-3′H-spiro[azetidine-3,2′-pyrrolo[2,1-b] [1,3]oxazol]-3′-one], the EC50 is 48.8 nM. Under `Cc1cccc(C(=O)N2CCC3(CC2)O[C@@H]2CC[C@@H](c4ccccc4)N2C3=O)c1F` [Example 6.157, (5′S,7a′R)-1-(2-fluoro-3-methylbenzene-1-carbonyl)-5′-phenyl-tetrahydro-3′H-spiro [piperidine-4,2′-pyrrolo[2,1-b][1,3]-oxazol]-3′-one] stands under 25 nM.

`Cc1cc(C#N)cnc1N1CCC2(CC1)O[C@@H]1CC[C@@H](c3cc(F)cc(F)c3)N1C2=O` [Example 4.47, 6-[(5′S,7a′R)-5′-(3,5-difluorophenyl)-3′-oxotetrahydro-1H,3′H-spiro[piperidine-4,2′-pyrrolo[2,1-b] [1,3]oxazol]-1-yl]-5-methylpyridine-3-carbonitrile]: the EC50 is under 25 nM. With `O=C(c1cccc(Cl)c1)N1CCC2(CC1)O[C@@H]1CC[C@@H](c3cc(F)cc(F)c3)N1C2=O` [Example 6.9, (5′S,7a′R)-1-(3-chloro-benzene-1-carbonyl)-5′-(3,5-difluoro-phenyl)tetrahydro-3′H-spiro[piperidine-4,2′-pyrrolo[2,1-b] [1,3]oxazol]-3′-one] the figure was under 25 nM. For the compound `CC(F)(F)c1ccnc(N2CCC3(CC2)O[C@@H]2CC[C@@H](c4ccccc4)N2C3=O)c1` [Example 4.262, (5′S,7a′R)-1-[4-(1,1-difluoroethyl)pyridin-2-yl]-5′-phenyltetrahydro-3′H-spiro[piperidine-4,2′-pyrrolo[2,1-b] [1,3]oxazol]-3′-one], the EC50 was 256 nM.

As for `NC(=O)c1nc(N2CCC3(CC2)O[C@@H]2CC[C@@H](c4cc(F)cc(F)c4)N2C3=O)ncc1F` [Example 4.184, 2-[(5′S,7a′R)-5′-(3,5-difluorophenyl)-3′-oxotetrahydro-1H,3′H-spiro[piperidine-4,2′-pyrrolo[2,1-b] [1,3]oxazol]-1-yl]-5-fluoropyrimidine-4-carboxamide], the EC50 is under 25 nM. `N#Cc1ccc(N2CCC3(CC2)O[C@@H]2CC[C@@H](c4cccc(F)c4)N2C3=O)n2ncnc12` [Example 4.259, 5-[(5′S,7a′R)-5′-(3-fluorophenyl)-3′-oxotetrahydro-1H,3′H-spiro[piperidine-4,2′-pyrrolo[2,1-b] [1,3]oxazol]-1-yl][1,2,4]triazolo[1,5-a] pyridine-8-carbonitrile]: the EC50 was under 25 nM. On to `N#Cc1cccc(C(=O)N2CCC3(CC2)O[C@@H]2CC[C@@H](c4cc(F)cc(F)c4)N2C3=O)c1F` [Example 6.33, 3-[(5′S,7a′R)-5′-(3,5-difluorophenyl)-3′-oxotetrahydro-1H,3′H-spiro[piperidine-4,2′-pyrrolo[2,1-b][1,3]oxazole]-1-carbonyl]-2-fluorobenzonitrile], for which the EC50 was found to be 40.2 nM. `CCn1nccc1C(=O)N1CCC2(CC1)O[C@@H]1CC[C@@H](c3cc(F)cc(F)c3)N1C2=O` [Example 6.37, (5′S,7a′R)-5′-(3,5-difluorophenyl)-1-(1-ethyl-1H-pyrazole-5-carbonyl)tetrahydro-3′H-spiro[piperidine-4,2′-pyrrolo[2,1-b] [1,3]oxazol]-3′-one]: the EC50 stood at 230 nM. Under `O=C(c1ccn2ccccc12)N1CCC2(CC1)O[C@@H]1CC[C@@H](c3cc(F)cc(F)c3)N1C2=O` [Example 5.68, (5′S,7a′R)-5′-(3,5-difluoro-phenyl)-1-(indolizine-1-carbonyl)tetrahydro-3′H-spiro[piperidine-4,2′-pyrrolo[2,1-b]oxazol]-3′-one] stands under 25 nM; under `O=C(c1ccccc1)N1CCC2(CC1)O[C@@H]1CC[C@@H](c3cnc4c(c3)CCC4)N1C2=O` [Example 17.12, (5′S,7a′R)-1-benzoyl-5′-(6,7-dihydro-5H-cyclopenta[b]pyridin-3-yl)tetrahydro-3′H-spiro[piperidine-4,2′-pyrrolo[2,1-b]oxazol]-3′-one], 342 nM. Turning to `Cc1cccc(C(=O)N2CCC3(CC2)O[C@@H]2CC[C@@H](c4cc(F)cc(F)c4)N2C3=O)c1F` [Example 6.8, (5′S,7a′R)-5′-(3,5-difluorophenyl)-1-(2-fluoro-3-methyl-benzene-1-carbonyl) tetrahydro-3′H-spiro [piperidine-4,2′-pyrrolo[2,1-b][1,3]oxazol]-3′-one], the EC50 is under 25 nM. Turning to `CC1CN(C(=O)c2ccccc2)CCC12O[C@@H]1CC[C@@H](c3cc(F)cc(F)c3)N1C2=O` (single isomer, unassigned) [Example 2.6, (3[S or R],4[S or R], 5′S,7a′R)-1-benzoyl-5′-(3,5-difluorophenyl)-3-methyltetrahydro-3′H-spiro[piperidine-4,2′-pyrrolo[2,1-b]oxazol]-3′-one], the EC50 was under 25 nM. `O=C(c1cccc(-c2ccccc2)n1)N1CCC2(CC1)O[C@@H]1CC[C@@H](c3cc(F)cc(F)c3)N1C2=O` [Example 6.97, (5′S,7a′R)-5′-(3,5-difluorophenyl)-1-(6-phenylpyridine-2-carbonyl)tetrahydro-3′H-spiro[piperidine-4,2′-pyrrolo[2,1-b] [1,3]oxazol]-3′-one]: the EC50 is under 25 nM.
